According to paper PMC2862773 (International journal of biological macromolecules, 2010):
“Also recorded” adds a separate entry of the source.

Columns and labels:
[1] = tested on: E. coli strain pBWU13.4/DK8; experiment: Growth yield in limiting glucose medium in presence of bioflavonoid compounds; type: cell-based, Escherichia coli; settings: OD595 after ~20 hours growth at 37 °C; control 100, null 45
[2] = target: E. coli ATP synthase (purified F1 or membrane bound F1Fo) (Escherichia coli, UniProt P0ABA6+P0ABB0+P0ABB4); type: biochemical; settings: for Residual ATPase Activity (%): left over ATPase activity at maximal inhibition
[3] = tested on: rat brain and liver mitochondrial F1Fo ATP synthase; settings: cited from earlier work
[4] = target: E. coli ATP synthase (purified F1 or membrane bound enzyme) (Escherichia coli, UniProt P0ABA6+P0ABB0+P0ABB4); experiment: Reversal of ATPase inhibition by dilution or centrifuge columns; type: biochemical; settings: dilution to non-inhibitory concentration or twice through centrifuge columns
[5] = tested on: cultured human lymphoblastoid and other mammalian cells; settings: not in ρ° cells; cited from earlier work
[6] = tested on: E. coli ATP synthase; settings: cited from earlier work
[7] = tested on: E. coli enzyme mutants αR283A/Q, αE284A/Q, βS263A/Q, γT273A/Q, γQ274A/K, γT277A/Q, γE278A/Q; experiment: Inhibition of polyphenol binding pocket mutants of E. coli enzyme; type: biochemical, Escherichia coli; settings: unpublished results of the authors
[8] = tested on: normal human prostate cells; settings: at similar concentrations (up to 50μmol/L/day); cited from earlier work
[9] = tested on: androgen-responsive human prostate carcinoma cells (LNCaP); settings: concentrations of up to 50μmol/L/day; cited from earlier work
[10] = purified F1 or membrane bound F1Fo
[11] = mitochondrial F1Fo ATP synthase

| Structure (SMILES) | Growth yield in limiting glucose (%) [1] [%] | Residual ATPase Activity (%) ([2]; 60 min preincubation) | Extent of inhibition of ATPase activity, in words [2, 10] | also measured |
| --- | --- | --- | --- | --- |
| Oc1cc(O)c2c(c1)O[C@H](c1ccc(O)c(O)c1)[C@H](O)C2 [(−)-Epicatechin] | 53 | 0 | complete inhibition |  |
| NC12CC3CC(CC(C3)C1)C2 [Amantadin, reference compound] | 51 | 0 | complete inhibition | Inhibition of ATPase activity (maximal extent) ([2]; purified F1 or membrane bound F1Fo, 60 min preincubation): ~ 100% |
| O=c1cc(-c2ccc(O)cc2)oc2cc(O)cc(O)c12 [Apigenin] |  | 60 |  | IC50 [3, 11]: ~100 µM; Reversibility of inhibition [4]: reversible |
| O=c1cc(-c2ccccc2)oc2cc(O)c(O)c(O)c12 [Baicalein] | 48 | 0 | complete inhibition |  |
| O=c1cc(-c2ccccc2)oc2cc(O)cc(O)c12 [Chrysin] | 73 | 40 |  |  |
| O=c1c(-c2ccc(O)cc2)coc2cc(O)ccc12 [Daidzein] | 96 |  | insignificant |  |
| COc1ccc(-c2cc(=O)c3c(O)cc(O[C@@H]4O[C@H](CO[C@@H]5O[C@@H](C)[C@H](O)[C@@H](O)[C@H]5O)[C@@H](O)[C@H](O)[C@H]4O)cc3o2)cc1O [Diosmin] |  |  | partial inhibition |  |
| O=c1c(O)c(-c2ccccc2)oc2cc(O)cc(O)c12 [Galangin] | 93 |  | insignificant; also recorded: no inhibition |  |
| O=c1c(-c2ccc(O)cc2)coc2cc(O)cc(O)c12 [Genistein] | 87 |  |  |  |
| COc1ccc([C@@H]2CC(=O)c3c(O)cc(O[C@@H]4O[C@H](CO[C@@H]5O[C@@H](C)[C@H](O)[C@@H](O)[C@H]5O)[C@@H](O)[C@H](O)[C@H]4O)cc3O2)cc1O [Hesperidin] | 76 | 40 | partial inhibition |  |
| O=c1cc(-c2ccc(O)c(O)c2)oc2cc(O)cc(O)c12 [Luteolin] | 87 |  | insignificant |  |
| O=c1c(O)c(-c2ccc(O)cc2O)oc2cc(O)cc(O)c12 [Morin hydrate] | 46 | 0 | complete inhibition |  |
| CC[C@H]1/C=C/C=C/C[C@@H](C)[C@H](O)[C@@](C)(O)C(=O)[C@@H](C)[C@H](O)[C@@H](C)C(=O)[C@@H](C)[C@H](O)[C@@H](C)/C=C/C(=O)O[C@@H]2[C@H](C)[C@H](CC1)O[C@]1(CC[C@H](C)[C@H](C[C@@H](C)O)O1)[C@H]2C [Oligomycin] |  |  |  | Time to apoptotic suicide response [5]: 12 to 18 h |
| O=c1c(O)c(-c2ccc(O)c(O)c2)oc2cc(O)cc(O)c12 [Quercetin] |  |  |  | IC50 ([6]; E. coli ATP synthase): ~33 µM; Reversibility of inhibition ([6]; binds non-covalently at the polyphenol binding site): reversible; Inhibition of E. coli ATP synthase [6]: ~ 80%; Inhibition of mutant enzymes [7]: loss of inhibition; IC50 [3, 11]: 55 to 65 µM |
| CC(N)C12CC3CC(CC(C3)C1)C2 (stereo not drawn) [Rimantadine, reference compound] | 52 | 0 | complete inhibition |  |
| C[C@@H]1O[C@@H](OC[C@H]2O[C@@H](Oc3c(-c4ccc(O)c(O)c4)oc4cc(O)cc(O)c4c3=O)[C@H](O)[C@@H](O)[C@@H]2O)[C@H](O)[C@H](O)[C@H]1O [Rutin hydrate] | 87 |  |  |  |
| COc1cc(C2Oc3cc([C@H]4Oc5cc(O)cc(O)c5C(=O)[C@@H]4O)ccc3OC2CO)ccc1O (stereo partly drawn) [Silibinin] | 47 | 0 | complete inhibition |  |
| O=c1c(-c2ccc(O)cc2)coc2cc(O[C@@H]3O[C@H](CO)[C@@H](O)[C@H](O)[C@H]3O)cc(O)c12 [genistin] |  |  |  | Inhibition of ATPase activity ([3]; up to 140 μM): did not inhibit |
| Oc1cc(O)cc(/C=C/c2ccc(O)c(O)c2)c1 [piceatannol] |  |  |  | Inhibition of mutant enzymes [7]: loss of inhibition |
| Oc1ccc(/C=C/c2cc(O)cc(O)c2)cc1 [resveratrol] |  |  |  | Effect on rate of cell death [8]: no effect; Inhibition of mutant enzymes [7]: loss of inhibition; Time to inhibition [3, 11]: 1 to 2 min; Effect on apoptosis [9]: stimulation of apoptosis |
